Tested on: HepaRG 3D microtissues
Conditions: 10-day old HepaRG 3D microtissues, 1.2 mM CPA
Description: FIG. 2B is a chart showing the change in HepaRG spheroid volume as an indicator of cytotoxicity induced by cyclophosphamide (CPA) with or without 1-aminobenzotriazol (ABT). The inventors analyzed the data with two-way ANOVA with Tukey's LSD means. P=0.05. […] FIG. 2C is a picture showing hematoxylin and eosin (H&E) stained toroid-shaped HepaRG microtissues. Scale bars=100 μm.

**Q.** Which “cytotoxicity: cell death and spheroid volume” value does the source give for `O=P1(N(CCCl)CCCl)NCCCO1` (stereo not shown) [CPA, cyclophosphamide] here?
**A.** caused cell death and a significant reduction in spheroid volume

— patent US12241049B2, “Multi-compartment device containing human three-dimensional (3D) microtissues for toxicity testing” (BROWN UNIVERSITY, priority 2019, dated 2025)
